Results on six compounds are retold here after patent publication US20250154142A1, “THIADIAZOLE-SUBSTITUTED COMPOUND, PHARMACEUTICAL COMPOSITIONS THEREOF, AND APPLICATIONS THEREOF” (Shanghai Yingli Pharmaceutical Co., Ltd., priority 2023, published 2025).

Data set [1] addresses T1, PARG (389-976) (Homo sapiens, UniProt Q86W56).
T1 construct: 5 μL of PARG (389-976) (manufactured by Chempartner Chemical Co., Ltd.); purchased Chempartner Chemical Co., Ltd
Briefly: PARG enzyme inhibition assay (TR-FRET). Type of data set: biochemical. The following applies: Bio PARylated His-TEV-PARP1 substrate. On the procedure:
PARG in vitro assays were conducted in standard 384-well plates in a total volume of 15 μL. 5 μL of PARG (389-976) (manufactured by Chempartner Chemical Co., Ltd.) in buffer (50 mM Tris-HCL 7.5, 30 mM KCl, 1 mM EDTA, 3 mM DTT, tween-20 0.01%, BSA 0.025%) was added at a final concentration of 1.5 pM to the 384-well plates containing the compounds to be tested, which was incubated for 30 min at room temperature. To the above mixture was added 5 μL Bio PARylated His-TEV-PARP1 (2-1014) substrate (manufactured by Chempartner Chemical Co., Ltd.) at a final concentration of 12 nM, after addition, the resulting mixture was incubated for 30 minutes at room temperature. Then to the mixture was added detection reagent (5 μL) which was buffered with 50 mM Tris-HCL 7.5, 30 mM KCl, 1 mM EDTA, 3 mM DTT, tween-20 0.01%, BSA 0.025%, and consisted of 3 μM of compound PDD00017273 and 9 nM Mab anti-6HIS XL665 (Cisbio: 61HISXLA) and 0.9 nM streptavidin affinity terbium cryptate (Cisbio: 610SATLA), all at 3× working concentrations (final concentrations of […], 3 nM and 0.3 nM, respectively). After 120 min incubation in the dark at room temperature, TR-FRET signals were measured at Ex 340 and Em 665 and Em 615. The ratio for each well was calculated as Em 665/Em 615 and the compound inhibition rate was calculated based on the obtained data.
Background: In TR-FRET formats the signal depends on donor and acceptor labels being close together.

The nature of data set [2]: Pharmacokinetic studies in mice after intravenous and oral administration. Type of data set: in vivo. To be noted: mouse, male CD-1 mice, plasma. On the procedure: After intravenous and oral administration to male C57BL/6J mice or male CD-1 mice, plasma samples were collected through the orbital venous plexus at 8-9 time points (e.g., 5 min, 15 min, 30 min, 1 h, 2 h, 4 h, 7 h, 24 h or 5 min, 15 min, 30 min, 1 h, 2 h, 4 h, 6 h, 8 h, 24 h). The collected blood samples were transferred to microcentrifuge tubes containing EDTA-K2 anticoagulant, and the […] were centrifuged for 5 min at 4° C. and 4000 g. The supernatants were stored in a refrigerator at −75° C.±15° C. The concentrations of the compounds in the plasma at the different time points were detected by LC-MS/MS and the relevant pharmacokinetic parameters were calculated using the WinNonlin software

pIC50: −log10 of the molar value.

T1 sequence (Q86W56 389-976): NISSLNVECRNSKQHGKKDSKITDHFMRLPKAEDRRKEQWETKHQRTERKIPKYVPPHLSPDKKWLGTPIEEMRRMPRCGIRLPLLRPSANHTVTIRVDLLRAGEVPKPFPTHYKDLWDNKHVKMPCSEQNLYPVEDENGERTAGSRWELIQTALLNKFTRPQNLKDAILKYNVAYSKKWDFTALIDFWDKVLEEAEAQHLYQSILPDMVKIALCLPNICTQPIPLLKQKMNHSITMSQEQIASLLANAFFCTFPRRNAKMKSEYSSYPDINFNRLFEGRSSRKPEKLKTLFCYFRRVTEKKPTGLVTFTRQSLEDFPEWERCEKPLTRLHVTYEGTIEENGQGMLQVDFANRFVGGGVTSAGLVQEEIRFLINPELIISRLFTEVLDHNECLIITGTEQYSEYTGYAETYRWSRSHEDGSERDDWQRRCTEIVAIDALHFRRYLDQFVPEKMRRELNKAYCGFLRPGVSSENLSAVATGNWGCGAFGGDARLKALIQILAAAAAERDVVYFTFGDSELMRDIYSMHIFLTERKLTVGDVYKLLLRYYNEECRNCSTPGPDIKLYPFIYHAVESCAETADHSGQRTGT

Broadly, the pIC50 is the negative decadic logarithm of the IC50, by convention in mol/L. The AUC(0-inf) is total exposure, with the tail of the curve extrapolated. Read a low AUC(0-inf) as less exposure. One may read the AUC(0-t) as exposure summed from dosing to a finite time, without extrapolation to infinity. As usually defined, the Cmax is the highest concentration seen after dosing. As for `C[C@H]1CN(c2cc(S(=O)(=O)NC3(C)CC3)cc3c2cnn3-c2nnc(C(F)(F)F)s2)C[C@H](C)N1` [Compound 1], the pIC50 in data set [1] (class symbol) is above 8.70. The pIC50 in data set [1] (numeric value) is 9.70. For the same compound, in data set [2] (intravenous 5 mg/kg), the total exposure AUC(0-inf) came to 3.7 µg·h/mL, the AUC(0-t) turned out to be 2.54 µg·h/mL and the clearance turned out to be 1.35 L/h/kg. Besides, in data set [2] (oral administration 10 mg/kg), the total exposure AUC(0-inf) turned out to be 2.98 µg·h/mL, the AUC(0-t) worked out at 2.61 µg·h/mL and the highest level (Cmax) was 0.175 µg/mL.

The compound `C[C@H]1CN(c2cc(S(=O)(=O)NC3(C)CC3)cc3c2cnn3-c2nnc(C(F)F)s2)C[C@H](C)N1` [Compound 1′, reference compound] showed a pIC50 in data set [1] (class symbol) above 8.70. Also, the pIC50 in data set [1] (numeric value) is 9.68. In data set [2] (intravenous 5 mg/kg), this compound came in with an AUC(0-inf) of 0.939 µg·h/mL, an AUC(0-t) of 0.905 µg·h/mL and a clearance of 5.37 L/h/kg. In data set [2] (oral administration 10 mg/kg), the AUC(0-inf) amounted to 0.929 µg·h/mL, the AUC(0-t) came to 0.725 µg·h/mL and the peak concentration (Cmax) is 0.0988 µg/mL.

For the compound `C[C@H]1CN(c2cc(S(=O)(=O)NC3(C#N)CC3)cc3c2cnn3-c2nnc(C(F)(F)F)s2)C[C@H](C)N1` [Compound 2], the results for the pIC50 in data set [1] (class symbol) and in data set [1] (numeric value) were above 8.70 and 9.21, respectively.

For `C[C@H]1CN(c2c(F)c(S(=O)(=O)NC3(C#N)CC3)cc3c2cnn3-c2nnc(C(F)(F)F)s2)C[C@H](C)N1` [Compound 3], in data set [2] (intravenous 5 mg/kg), the AUC(0-inf) turned out to be 2.42 µg·h/mL, the AUC(0-t) worked out at 2.41 µg·h/mL and the clearance stood at 2.09 L/h/kg. In data set [2] (oral administration 10 mg/kg), this compound displayed an AUC(0-inf) of 4.08 µg·h/mL, an AUC(0-t) of 4.07 µg·h/mL and a Cmax of 0.513 µg/mL.

The compound `C[C@H]1CN(c2c(F)c(S(=O)(=O)NC3(C)CC3)cc3c2cnn3-c2nnc(C(F)(F)F)s2)C[C@H](C)N1` [Compound 4] gave a pIC50 in data set [1] (class symbol) above 8.70. Further, in data set [2] (intravenous 5 mg/kg), the AUC(0-inf) was determined as 2.35 µg·h/mL, the AUC(0-t) was determined as 1.99 µg·h/mL and the clearance came to 2.14 L/h/kg. In data set [2] (oral administration 10 mg/kg), this compound gave an AUC(0-inf) of 3.97 µg·h/mL, an area under the curve AUC(0-t) of 3.26 µg·h/mL and a Cmax of 0.198 µg/mL.

In turn, `C[C@H]1CN(c2c(F)c(S(=O)(=O)NC3(C)CC3)cc3c2cnn3-c2nnc(C(F)F)s2)C[C@H](C)N1` [Compound 5] gave a pIC50 in data set [1] (class symbol) above 8.70. Further, in data set [2] (intravenous 5 mg/kg), the AUC(0-inf) was 1.62 µg·h/mL, the AUC(0-t) amounted to 1.6 µg·h/mL and the clearance is 3.1 L/h/kg. Also, in data set [2] (oral administration 10 mg/kg), the AUC(0-inf) was found to be 2 µg·h/mL, the AUC(0-t) came to 1.97 µg·h/mL and the concentration peaked (Cmax) at 0.172 µg/mL.
